SMILES strings stand for the structures. “And” between values parts separate entries of the source, which are not always exact repeats. Equal values may be shown once. Where a name gives a salt, the structure may show the parent alone. Read-outs that look alike come from different tables or passages of the source. Non-standard residues stand in square brackets, D forms with d. Residues, ends and D or L forms follow the SMILES beside them. Nle = CCCC[C@H](N)C(=O)O

What is called EC50 is the midpoint of the concentration-response curve. The term CC50 denotes the concentration giving 50% cytotoxicity. A lower CC50 goes with greater toxicity to the cells. As a reminder, the IC50 is the concentration needed to halve the response being measured.

The test system of data set [1] is SARS-CoV-2. The data set is classed as cell-based. Particulars: Huh-7.5, MOI 0.1, 24 h.p.i., anti-N IFA.
Data set [2] has as its system SARS-CoV-2. Particulars: Vero E6 cells; cited from earlier work.
In data set [3] the test system is SARS-CoV-2. The experiment in a line: microbe, parasite or virus in culture. It is filed as cell-based. The following applies: for EC50: Severe acute respiratory syndrome coronavirus 2, Huh7.5, 24 h.
The test system of data set [4] is HEK293T cells. The experiment in a line: Cell viability (alamarBlue) on HEK293T cells. The following applies: replicate data, listed as Lycorine hydrochloride. (In general: The colour change of resazurin is a common sign of viable cells or microbes.)
The subject of data set [5] is SARS-CoV-2. The experiment in a line: Time of addition (pre-treatment) experiment in Huh-7.5 cells, plaque assay. The data set is classed as cell-based. Particulars: Huh-7.5, pretreatment.
Data set [6] concerns SARS-CoV. Particulars: Vero E6 cells; cited from earlier work.
Data set [7] has as its target T1, SARS-CoV-2 Mpro (Severe acute respiratory syndrome coronavirus 2, UniProt P0DTC1). The experiment in a line: biochemical. The procedure:
A cleavage site is indicated by an asterisk. […] N = 3, values are represented as mean ± SE.
For the determination of half-maximal inhibitory concentrations (IC50) of MG-101 and GC376 (BPS Bioscience), a synthetic substrate of Mpro containing FRET pair and Mpro nsp4/5 cleavage site (indicated by an arrow, Dabcyl-KTSAVLQ ↓ SGFRKME-Edans) (BPS Bioscience) was used for the FRET-based cleavage assay. The assay was performed in 96-well, black, flat-bottomed microtiter plates (Greiner Bio-One, Germany) with a final volume of 50 μl. Mpro (a final concentration of 200 nM) was pre-incubated for 1 h at 22 °C with compounds at different concentrations in the assay buffer (20 mM HEPES (pH 7), 0.5 mM EDTA, 1 mM dithiothreitol, 5% glycerol). The substrate was then added at a final concentration of 10 μM to the reaction mixture and the reaction was incubated for 4 h at 22 °C. The readings for the different concentrations of the inhibitor compounds incubated with the substrate without Mpro were measured as a blank. The fluorescence signals (excitation/emission, 360 nm/460 nm) of released EDANS were measured using Infinite 200 PRO multimode plate reader (Tecan, USA). The results were plotted as dose inhibition curves using nonlinear regression with a variable slope to determine the IC50 values of inhibitor compounds using GraphPad Prism 9.0.

A short description of data set [8]: Cytotoxicity assay (alamarBlue) on Huh-7.5 cells. The following applies: human, CC50, Huh-7.5 cells, alamarBlue reduction.
In data set [9] the test system is Huh-7.5 cells. The experiment in a line: Cytotoxicity assay (alamarBlue) on Huh-7.5 cells. Particulars: Huh-7.5 cells, alamarBlue reduction.
For data set [10], the target named is T1, SARS-CoV-2 Mpro. The experiment in a line: In-cell protease (ICP) assay, Mpro construct in HEK293T cells. It is filed as cell-based. The following applies: HEK-293T; for remaining activity at 1 µM: read-out: mEmerald-NLS nuclear/total fluorescence (protease activity) normalized to untreated cells, 1 μM, HEK293T, Fig 2A replicate data, untreated control = 100; for remaining activity at 10 µM: read-out: mEmerald-NLS nuclear/total fluorescence (protease activity) normalized to untreated cells, 10 μM, HEK293T, Fig 2A replicate data, untreated control = 100.

Data set [11] deals with Mpro. The following applies: thermal shift assay as worded; cited from earlier work.
In data set [12] the target is SARS-CoV-2 PLpro (Severe acute respiratory syndrome coronavirus 2, UniProt P0DTC1). The experiment in a line: cell-based. The following applies: HEK-293T.
Data set [13] in a line: in vitro. The following applies: human, CC50, Huh-7.5 cells, alamarBlue reduction.

Take `O[C@H]1[C@H]2c3cc4c(cc3CN3CCC(=C[C@@H]1O)[C@H]23)OCO4` [Lycorine HCl]: the “inhibition of virus spread compared to untreated controls” value in [1] was found to be 88%. Moreover, the EC50 in [2] is 0.3 µM; in data set [3], 0.01 µM; in data set [6], 0.016 µM. Moreover, in data set [3] (Huh-7.5 cells), the “Selectivity index SI = CC50/EC50” value is 1878. Further, the “% normalised alamar Blue reduction at 10μM” value in data set [4] is 76% and 65% and 69.32%. Also, in [5], the “effect of pre-treatment on virus production / entry” value is on record as “only minimal effect on virus production”. Moreover, the “inhibition of Mpro protease activity” value in [7] (FRET assay) was “not found to be effectively inhibiting the Mpro protease activity”. Moreover, the CC50 at 24 h in [8] was 18.8 µM. Further, in data set [9], the CC50 amounted to 19 µM. Besides, the remaining activity at 1 µM in data set [10] was determined as 43%. Besides, in [10], the remaining activity at 10 µM is 25%.

`CCCC[C@@H](C=O)NC(=O)[C@H](CC(C)C)NC(=O)[C@H](CC(C)C)NC(C)=O` [MG-101] (Ac-Leu-Leu-[Nle]-aldehyde): the “inhibition of virus spread compared to untreated controls” value in data set [1] was 95%. In addition, the IC50 in [11] was 8.6 µM; in [7] (Mpro 200 nM, substrate 10 μM, 1 h pre-incubation, read-out: IC50), 2.89 ± 0.86 µM. The remaining activity at 1 µM in [12] (read-out: mEmerald-NLS nuclear/total fluorescence (protease activity) normalized to untreated cells, 1 μM, HEK293T, Fig 2A replicate data, untreated control = 100) was found to be 68%; in [10], 22%. Also, the remaining activity at 10 µM is 70% in data set [12] (read-out: mEmerald-NLS nuclear/total fluorescence (protease activity) normalized to untreated cells, 10 μM, HEK293T, Fig 2A replicate data, untreated control = 100) and 8.9% in [10]. This compound also displayed an EC50 in data set [3] of 0.038 µM. Also, the “virus titer at 24 h.p.i., Fig 6A data” value in data set [3] (single drug 1 μM, Huh 7.5, replicates) was 48000 and 56000 and 44000. Moreover, the “effect of pre-treatment on virus production / entry” value in data set [5] is recorded as “affect the virus entry”. Moreover, the “reduction in virus titer on pretreatment of cells” value in data set [5] was found to be 1 log. In data set [13], the CC50 at 24 h came out at 37 µM.

The values are drawn from paper PMC8881501, “Identification of SARS-CoV-2 inhibitors targeting Mpro and PLpro using in-cell-protease assay” (Communications Biology, 2022).
